Molecular target: T1, BaF3 cells transfected with the Bcr-Abl T315I mutant (Homo sapiens, UniProt P00519, T315I, cells depend on it)
T1 construct: fused on or other part: P11274 (Breakpoint cluster region protein)
Experiment: Ba/F3 cell proliferation assay, Bcr-Abl T315I (CellTiter 96 AQueous One);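 further: murine pro-B Ba/F3 line, tetrazolium turned into formazan and read by absorbance, compound dilution series, values as percent of DMSO-treated control, IC50 from fitted curves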
Assay type: cell-based, murine
Details: Ba/F3 cells expressing Bcr-Abl T315I, 3 days incubation; read-out: T315l cell proliferation
Source text: More specifically, the cell proliferation assay we currently perform is using CellTiter 96 AQueous One Solution Cell Proliferation assay kit (Promaga, Cat#G3581). This assay is a colorimetric method for determining the number of alive cells in proliferation or cytotoxicity assays. The assay utilizing terazolium salts detect cell proliferation by detecting the product of the enzymatic conversion of the tetrazolium salts into blue formazan derivatives, which can be measured by the absorbance at 490 nm in a plate reader, Wallac Victor^2V (Perkin Elmer).
An example of cell-based assay is shown as below. The cell lines used in the assay are Ba/F3, a murine pro-B cell line, which have been stably transfected with full-length wild-type Bcr-Abl or Bcr-Abl with various kinase domain point mutations (including T351I, Y253F, E255K, H396P, M351T etc) constructs. Parental Ba/F3 cell line is used as control. […] Parental Ba/F3 cells were culture in the same medium supplemented with 10 ng/ml IL-3.
The compounds are first dissolved and diluted in DMSO by preparation of 4-fold dilution; next equal volumes of compounds with DMSO are transferred to medium and then transferred to cell plates. The final compound concentrations start from 10 μM to 6 nM. DMSO at same percentage is used as control. […] Basically, the tetrazolium salts are added to the incubated cultured cells to allow enzymatic conversion to the detectable product by active cells. Cells are processed, and the optical density of the cells is determined to measure the amount of formazan derivatives. Mean+/−SD are generated from duplicated wells and reported as the percentage absorbance of control. IC50s are calculated in best-fit curves using Micorsoft Excel-fit software.

Compound: CC(C)N1CCN(Cc2ccc(NC(=O)c3cncc(C#Cc4cnc5cnccn45)c3)cc2C(F)(F)F)CC1
- GI50: < 1 µM

Compound: Cc1ccc(C(=O)Nc2cc(-n3cnc(C#N)c3)cc(C(F)(F)F)c2)cc1C#Cc1cnc2cnccn12
- GI50: < 1 µM

Compound: Cc1ccc(C(=O)Nc2ccc(CN3CC[C@@H](N(C)C)C3)c(C(F)(F)F)c2)cc1C#Cc1cnc2cnccn12 (stereo in doubt)
- GI50: < 1 µM

Compound: CC(C)N1CCN(Cc2ccc(NC(=O)c3cccc(C#Cc4cnc5cnccn45)c3)cc2C(F)(F)F)CC1
- GI50: < 1 µM

Compound: Cc1ccc(C(=O)Nc2ccc(CN3CCOCC3)c(C(F)(F)F)c2)cc1C#Cc1cnc2cnccn12
- GI50: < 1 µM

Compound: Cc1ccc(C(=O)Nc2ccc(CN3CC[C@@H](N(C)C)C3)c(C(F)(F)F)c2)cc1C#Cc1cnc2cccnn12 (racemic)
- GI50: < 1 µM

Compound: Cc1ccc(C(=O)Nc2cc(-n3ccnc3)cc(C(F)(F)F)c2)cc1C#Cc1cnc2cnccn12
- GI50: < 1 µM

Compound: Cc1ccc(C(=O)Nc2cc(Cn3ccnc3)cc(C(F)(F)F)c2)cc1C#Cc1cnc2ccccn12
- GI50: < 1 µM

Compound: Cc1ccc(C(=O)Nc2cc(-n3cnc(CCN4CCCC4)c3)cc(C(F)(F)F)c2)cc1C#Cc1cnc2cnccn12
- GI50: < 1 µM

Compound: Cc1ccc(C(=O)Nc2cc(CN3CCCC3)cc(C(F)(F)F)c2)cc1C#Cc1cnc2cnccn12
- GI50: < 1 µM

Compound: CC(=O)Nc1cccn2c(C#Cc3cc(C(=O)Nc4cccc(C(F)(F)F)c4)ccc3C)cnc12
- GI50: < 1 µM

Compound: Cc1ccc(C(=O)Nc2ccc(CN3CCNCC3)c(C(F)(F)F)c2)cc1C#Cc1cnc2cnccn12
- GI50: < 1 µM

Compound: Cc1cn(-c2cc(NC(=O)c3ccc(C)c(C#Cc4cnc5ccccn45)c3)cc(C(F)(F)F)c2)cn1
- GI50: < 1 µM

Compound: CN1CCN(Cc2ccc(NC(=O)c3ccc(F)c(C#Cc4cnc5cnccn45)c3)cc2C(F)(F)F)CC1
- GI50: < 1 µM

Compound: Cc1ccc(C(=O)Nc2cc(Cn3ccnc3)cc(C(F)(F)F)c2)cc1C#Cc1cnc2cnccn12
- GI50: < 1 µM

Compound: Cc1ccc(C(=O)Nc2ccc(CN3CC[C@H](N(C)C)C3)c(C(F)(F)F)c2)cc1C#Cc1cnc2cnccn12 (stereo in doubt)
- GI50: < 1 µM

Compound: Cc1ccc(C(=O)Nc2cc(C(F)(F)F)ccn2)cc1C#Cc1cnc2c(Nc3ccc(S(C)(=O)=O)cc3)cccn12
- GI50: < 1 µM

Compound: Cc1ccc(C(=O)Nc2cc(-n3ccnc3)cc(C(F)(F)F)c2)cc1C#Cc1cnc2c(NC(=O)OC(C)(C)C)cccn12
- GI50: < 1 µM

Compound: Cc1ccc(C(=O)Nc2ccc(CN3CCCC3)c(C(F)(F)F)c2)cc1C#Cc1cnc2cnccn12
- GI50: < 1 µM

Compound: Cc1ccc(C(=O)Nc2ccc(CN3CCC(N(C)C)CC3)c(C(F)(F)F)c2)cc1C#Cc1cnc2cnccn12
- GI50: < 1 µM

Compound: CN1CCN(Cc2ccc(NC(=O)c3ccc(Cl)c(C#Cc4cnc5ccccn45)c3)cc2C(F)(F)F)CC1
- GI50: < 1 µM

Compound: Cc1ccc(C(=O)Nc2cc(C(C)(C)C)on2)cc1C#Cc1cnc2c(NC(N)=O)cccn12
- GI50: < 1 µM

Compound: Cc1ccc(C(=O)Nc2cc(CN3CCOCC3)cc(C(F)(F)F)c2)cc1C#Cc1cnc2ccccn12
- GI50: < 1 µM

Compound: Cc1ccc(C(=O)Nc2cc(-n3cnc(CCN4CCCC4)c3)cc(C(F)(F)F)c2)cc1C#Cc1cnc2ccccn12
- GI50: < 1 µM

Compound: CN1CCN(Cc2ccc(NC(=O)c3ccc(C#Cc4cnc5ccccn45)o3)cc2C(F)(F)F)CC1
- GI50: < 1 µM

Compound: Cc1ccc(C(=O)Nc2cc(-n3ccnc3)cc(C(F)(F)F)c2)cc1C#Cc1cnc2c(Nc3cccc(C(N)=O)c3)cccn12
- GI50: < 1 µM

Compound: Cc1ccc(C(=O)Nc2ccc(CN3CC[C@@H](O)C3)c(C(F)(F)F)c2)cc1C#Cc1cnc2ccccn12 (racemic)
- GI50: < 1 µM

Compound: Cc1ccc(C(=O)Nc2ccc(CN3CCNC(=O)C3)c(C(F)(F)F)c2)cc1C#Cc1cnc2ccccn12
- GI50: < 1 µM

Compound: Cc1ccc(C(=O)Nc2cc(C(F)(F)F)ccn2)cc1C#Cc1cnc2c(NC(=O)C3CCC3)cccn12
- GI50: < 1 µM

Compound: Cc1ccc(C(=O)Nc2cc(-n3ccnc3)cc(C(F)(F)F)c2)cc1C#Cc1cnc2c(NC(N)=O)cccn12
- GI50: < 1 µM

Compound: Cc1ccc(C(=O)Nc2cc(C(F)(F)F)ccn2)cc1C#Cc1cnn2cccnc12
- GI50: < 1 µM

Compound: CC(C)(C)c1cc(NC(=O)c2cccc(C#Cc3cnc4ccccn34)c2)no1
- GI50: < 1 µM

Compound: Cc1ccc(C(=O)Nc2cc(C(F)(F)F)ccn2)cc1C#Cc1cnc2c(NC(=O)N(C)C)cccn12
- GI50: < 1 µM

Compound: CN1CCN(Cc2ccc(NC(=O)c3cccc(C#Cc4cnc5cnccn45)c3)cc2C(F)(F)F)CC1
- GI50: < 1 µM

Compound: Cc1ccc(C(=O)Nc2cc(-n3cnc(C#N)c3)cc(C(F)(F)F)c2)cc1C#Cc1cnc2ccccn12
- GI50: < 1 µM

Compound: Cc1ccc(C(=O)Nc2cc(-n3ccnc3)cc(C(F)(F)F)c2)cc1C#Cc1cnn2cccnc12
- GI50: < 1 µM

Compound: Cc1ccc(C(=O)Nc2cc(C(F)(F)F)ccn2)cc1C#Cc1cnc2c(NC(=O)C3CC3)cccn12
- GI50: < 1 µM

Compound: Cc1ccc(C(=O)Nc2cc(CN3CCOCC3)cc(C(F)(F)F)c2)cc1C#Cc1cnc2cnccn12
- GI50: < 1 µM

Compound: Cc1ccc(C(=O)Nc2cc(C(F)(F)F)ccn2)cc1C#Cc1cnc2c(Nc3ccc(S(N)(=O)=O)cc3)cccn12
- GI50: < 1 µM

Compound: Cc1ccc(C(=O)Nc2ccc(CN3CCN(C)CC3)c(C(F)(F)F)c2)cc1C#Cc1cnn2c(N)ncnc12
- GI50: < 1 µM

Compound: Cc1ccc(C(=O)Nc2cc(C(C)(C)C)on2)cc1C#Cn1cnc2c(NC3CC3)ncnc21
- GI50: < 1 µM

Compound: CN1CCN(Cc2ccc(C(=O)Nc3cccc(C#Cc4cnc5cnccn45)c3)cc2C(F)(F)F)CC1
- GI50: < 1 µM

Compound: Cc1ccc(C(=O)Nc2cc(C(F)(F)F)ccn2)cc1C#Cc1cnn2c(N)ncnc12
- GI50: < 1 µM

Compound: Cc1ccc(C(=O)Nc2cc(C(F)(F)F)ccn2)cc1C#Cc1cnc2c(NC(N)=O)cccn12
- GI50: < 1 µM

Compound: CC(=O)Nc1cccn2c(C#Cc3cc(C(=O)Nc4cc(C(F)(F)F)ccn4)ccc3C)cnc12
- GI50: < 1 µM

Compound: Cc1ccc(C(=O)Nc2cc(CN3CCCC3)cc(C(F)(F)F)c2)cc1C#Cc1cnc2ccccn12
- GI50: < 1 µM

Compound: Cc1ccc(C(=O)Nc2ccc(OC3CCN(C)CC3)c(C(F)(F)F)c2)cc1C#Cc1cnc2cnccn12
- GI50: < 1 µM

Compound: CNC(=O)Nc1cccn2c(C#Cc3cc(C(=O)Nc4cc(C(F)(F)F)ccn4)ccc3C)cnc12
- GI50: < 1 µM

Compound: CCN1CCN(Cc2ccc(NC(=O)c3ccc(C)c(C#Cc4cnc5cnccn45)c3)cc2C(F)(F)F)CC1
- GI50: < 1 µM

Compound: Cc1ccc(C(=O)Nc2ccc(Cn3ccnc3)c(C(F)(F)F)c2)cc1C#Cc1cnc2ccccn12
- GI50: < 1 µM

Compound: CN1CCN(Cc2ccc(NC(=O)c3cccc(C#Cc4cnc5ccccn45)c3)cc2C(F)(F)F)CC1
- GI50: < 1 µM

Compound: COC(=O)Nc1cccn2c(C#Cc3cc(C(=O)Nc4cc(C(F)(F)F)ccn4)ccc3C)cnc12
- GI50: < 1 µM

Compound: Cc1ccc(C(=O)Nc2cc(-n3cnc(CN4CCCC4)c3)cc(C(F)(F)F)c2)cc1C#Cc1cnc2cnccn12
- GI50: < 1 µM

Compound: Cc1ccc(C(=O)Nc2ccc(CN3CCC(N(C)C)CC3)c(C(F)(F)F)c2)cc1C#Cc1cnc2ccccn12
- GI50: < 1 µM

Compound: Cc1ccc(C(=O)Nc2cc(-n3ccnc3CN(C)C)cc(C(F)(F)F)c2)cc1C#Cc1cnc2cnccn12
- GI50: < 1 µM

Compound: CN1CCN(Cc2ccc(NC(=O)c3ccc(F)c(C#Cc4cnc5ccccn45)c3)cc2C(F)(F)F)CC1
- GI50: < 1 µM

Compound: CC(=O)Nc1ncnc2c(C#Cc3cc(C(=O)Nc4cc(C(F)(F)F)ccn4)ccc3C)cnn12
- GI50: < 1 µM

Compound: Cc1ccc(C(=O)Nc2ccc(CN3CCN(C)CC3)c(C(F)(F)F)c2)cc1C#Cc1cnn2cccnc12
- GI50: < 1 µM

Compound: Cc1ccc(C(=O)Nc2ccc(Cn3ccnc3)c(C(F)(F)F)c2)cc1C#Cc1cnc2cnccn12
- GI50: < 1 µM

Compound: Cc1ccc(C(=O)Nc2ccc(CN3CCN(C(C)C)CC3)c(C(F)(F)F)c2)cc1C#Cc1cnc2cnccn12
- GI50: < 1 µM

Compound: Cc1ccc(C(=O)Nc2cc(C(F)(F)F)ccn2)cc1C#Cc1cnc2c(N)cccn12
- GI50: < 1 µM

Source: US8470851B2, “Substituted acetylenic imidazo[1,2-A]pyridine compounds as kinase inhibitors” (ARIAD Pharmaceuticals, Inc., priority 2005, dated 2013)
